Data taken from patent US20240043528A1, “NANOBODY-OGA FUSIONS AND USES THEREOF” (President and Fellows of Harvard College, priority 2020, published 2024).
Entries after “also recorded” stand apart in the source; their conditions may differ.

Key:
Assay type in all cases: cell-based, human
GFP-c-Jun = assay: Cycloheximide (CHX) chase of GFP-c-Jun stability; settings: 50 μM CHX for up to 12 h, HEK 293T cells
Procedure: HEK 293T cells were transiently transfected with indicated plasmids and treated with DMSO, or Ac45SGlcNAc, or Thiamet-G at the same time if needed. 36-48 h after the transfection, cells were incubated with 50 μM CHX for up to 12 h. At the indicated time points, cells were harvested and lysed with M-PER lysis buffer. Protein expression and global O-GlcNAc level were determined by immunoblot assays. GAPDH protein level was used as the internal loading control.

c-Fos-Ubc-Flag-EPEA = assay: Deglycosylation of c-Fos-Ubc-Flag-EPEA (anti-EPEA enrichment, anti-O-GlcNAc immunoblot); settings: HEK 293T cells
Procedure: For immunoprecipitation of proteins with the C-terminal EPEA tag, cell lysates with equal amounts of protein were diluted with PBS and incubated with C-tag affinity matrix (Thermo Scientific) for 1 h at room temperature, with end-to-end rotation, following the manufacturer's instructions. After washing three times with PBS buffer, the enriched proteins were eluted with SDS sample buffer and subjected to SDS-PAGE.
For immunoblotting analysis, proteins were transferred to a nitrocellulose membrane using iBlot (Thermo Scientific). […] All IR fluorescence western blot images are converted into grayscale images by Fiji ImageJ. The unsaturated exposure of immunoblot images was used for quantification with the appropriate loading controls as standards. […]
The ability of nUbc-split OGA to selectively remove an O-GlcNAc modification from Ubc-tagged c-Fos was examined. c-Fos is a core component of the AP-1 transcription factor complex, which will dimerize with c-Jun and drive downstream transcription (Hess, J., Angel, P. & Schorpp-Kistner, M. AP-1 subunits: quarrel and harmony among siblings. J. Cell Sci. 2004, 117, 5965-73). […] The O-GlcNAc modification level was evaluated by immunoblotting with an anti-O-GlcNAc antibody (FIG. 4C). Ratios were quantified from the protein level and O-GlcNAc level.

[1] = tested on: AP-1 transcriptional activity; assay: AP-1 responsive luciferase reporter assay in c-Fos-Ubc co-transfected HEK 293T cells; settings: c-Fos-Ubc-Flag-EPEA co-transfected HEK 293T cells, 48 h; OSMI-4b 25 μM
Procedure: For luciferase assay in the OGT inhibition experiment, HEK 293T cells co-transfected with c-Fos-Ubc-Flag-EPEA plasmid and AP-1 responsive luciferase reporter were treated with either DMSO or 25 μM OSMI-4b for 48 h before luciferase activity detection. […] Luciferase reporter assays were performed using Luciferase Assay System (Promega, E1500) according to manufacturer's protocols. At least three independent biological replicates were run using this assay.

endogenous c-Jun = assay: O-GlcNAcylation status of endogenous c-Jun (chemoenzymatic labeling, Biotin-IP); settings: HEK 293T cells expressing c-Fos-Ubc
Procedure: (§1) Purification of GalT1 (Y289L) enzyme and labeling of O-GlcNAcylated proteins with GalNAz were performed according to the procedure of Hsieh-Wilson and co-workers (Thompson, J. W., Griffin, M. E. & Hsieh-Wilson, L. C. Methods for the Detection, Study, and Dynamic Profiling of O-GlcNAc Glycosylation. Methods Enzymol. 2018, 598, 101-135). Briefly, cell samples in 6-well plates or 15-cm dishes were harvested and washed by PBS once. The lysis buffer (PBS with 2% SDS) was added into cell pellets and heated for 5 min at 95° C., followed by the sonication to sheer DNA. Protein concentrations were determined by BCA assay. Cell lysates were reduced and alkylated with 25 mM DTT at 95° C. for 5 min and 50 mM iodoacetamide at room temperature for 1 h respectively. Proteins were precipitated by the methanol/chloroform solution (aqueous phase:CH3OH:CHCl3=4:4:1) and resuspended in 1% SDS, 20 mM HEPES (pH 7.9) buffer with a concentration of 3.75 mg/mL. For 150 μg proteins, H2O (49 μL), 2.5×GalT labeling buffer (80 μL, final concentrations: 50 mM NaCl, 20 mM HEPES, 2% NP-40, pH 7.9), 100 mM MnCl2 (11 μL), 500 μM UDP-GalNAz (10 μL), 2 mg/mL GalT1 (Y289L) (10 μL) were added into cell lysates orderly. The reaction was gently rotated at 4° C. for at least 20 h and the proteins were precipitated as described above. The proteins were resuspended with 1% SDS, PBS for the further click chemistry. […]

global O-GlcNAcylation = assay: Global O-GlcNAcylation level in whole cell lysate, anti-O-GlcNAc (RL2) immunoblot; settings: HEK 293T whole cell lysate, OSMI-4b 25 μM for 30 h
Procedure: After 36-48 h of transfection, cells were harvested and washed with PBS once. Cells were lysed with M-PER lysis buffer containing 1× protease inhibitor cocktail and 10 μM Thiamet-G unless otherwise noted. Protein concentrations were determined by the BCA assay kit (G-Biosciences, 786) on a multi-mode microplate reader FilterMax F3 (Molecular Devices LLC, Sunnyvale, CA).
(§2) For immunoblotting analysis, proteins were transferred to a nitrocellulose membrane using iBlot (Thermo Scientific). Membranes were blocked with Tris buffered saline containing 0.1% Tween-20 and 5% BSA and incubated with the primary antibodies (1:1000 dilution) and the secondary antibodies (1:10,000 dilution) sequentially. Immunoblot images were captured by Azure Imager C600. Analysis of immunoblots was conducted with Fiji ImageJ. All IR fluorescence western blot images are converted into grayscale images by Fiji ImageJ. The unsaturated exposure of immunoblot images was used for quantification with the appropriate loading controls as standards. Statistical analysis of the data was performed with Prism 8, using data from at least three independent experiments.

endogenous CREB = assay: Mass shift assay of O-GlcNAcylation on endogenous CREB (off-target marker); settings: untargeted off-target marker, HEK 293T cells
Procedure: as §2
Purification of GalT1 (Y289L) enzyme and labeling of O-GlcNAcylated proteins with GalNAz were performed according to the procedure of Hsieh-Wilson and co-workers (Thompson, J. W., Griffin, M. E. & Hsieh-Wilson, L. C. Methods for the Detection, Study, and Dynamic Profiling of O-GlcNAc Glycosylation. Methods Enzymol. 2018, 598, 101-135). Briefly, cell samples in 6-well plates or 15-cm dishes were harvested and washed by PBS once. The lysis buffer (PBS with 2% SDS) was added into cell pellets and heated for 5 min at 95° C., followed by the sonication to sheer DNA. Protein concentrations were determined by BCA assay. […]

O-GlcNAcylated proteome = assay: Quantitative TMT mass spectrometry of enriched O-GlcNAcylated proteome; settings: co-expression of GFP-Nup62, versus inactive nGFP-splitOGA(D174N), n=2
Procedure: as §1, with “orderly.” for “orderly. The reaction was gently rotated at 4° C. for at least 20 h and the proteins were precipitated as described above. The proteins were resuspended with 1% SDS, PBS for the further click chemistry.”
For quantitative proteomics, after reaction with Biotin-Alkyne probe, proteins were precipitated and resuspended in 400 μL PBS containing 2% SDS. […]

Molecule: CCN=C1N[C@@H]2[C@@H](O)[C@H](O)[C@@H](CO)O[C@@H]2S1 [Thiamet-G]
- stability / degradation of GFP-c-Jun (GFP-c-Jun): attenuated; also recorded: enhanced

Molecule: OSMI-4b
- O-GlcNAc modification level on c-Fos-Ubc (c-Fos-Ubc-Flag-EPEA): deglycosylated
- AP-1 transcriptional activity (luciferase) [1]: significantly upregulated
- O-GlcNAc modification on endogenous c-Jun (endogenous c-Jun): reduced O-GlcNAc modification
- global O-GlcNAcylation level (global O-GlcNAcylation): dramatic reduction of global O-GlcNAcylation level
- global O-GlcNAcylation level (global O-GlcNAcylation; listed as OSMI-4b9): dramatic reduction

B1: fl-OGA: Full length OGA with a myc tag (SEQ ID NO: 1) (protein)
chain: MASMQKLISEEDLLMAMEARIRSTVQKESQATLEERESELSSNPAASAGASLEPPAAPAPGEDNPAGAGGAAVAGAAGGARRFLCGVVEGFYGRPWVMEQRKELFRRLQKWELNTYLYAPKDDYKHRMFWREMYSVEEAEQLMTLISAAREYEIEFIYAISPGLDITFSNPKEVSTLKRKLDQVSQFGCRSFALLFDDIDHNMCAADKEVFSSFAHAQVSITNEIYQYLGEPETFLFCPTEYCGTFCYPNVSQSPYLRTVGEKLLPGIEVLWTGPKVVSKEIPVESIEEVSKIIKRAPVIWDNIHANDYDQKRLFLGPYKGRSTELIPRLKGVLTNPNCEFEANYVAIHTLATWYKSNMNGVRKDVVMTDSEDSTVSIQIKLENEGSDEDIETDVLYSPQMALKLALTEWLQEFGVPHQYSSRQVAHSGAKASVVDGTPLVAAPSLNATTVVTTVYQEPIMSQGAALSGEPTTLTKEEEKKQPDEEPMDMVVEKQEETDHKNDNQILSEIVEAKMAEELKPMDTDKESIAESKSPEMSMQEDCISDIAPMQTDEQTNKEQFVPGPNEKPLYTAEPVTLEDLQLLADLFYLPYEHGPKGAQMLREFQWLRANSSVVSVNCKGKDSEKIEEWRSRAAKFEEMCGLVMGMFTRLSNCANRTILYDMYSYVWDIKSIMSMVKSFVQWLGCRSHSSAQFLIGDQEPWAFRGGLAGEFQRLLPIDGANDLFFQPPPLTPTSKVYTIRPYFPKDEASVYKICREMYDDGVGLPFQSQPDLIGDKLVGGLLSLSLDYCFVLEDEDGICGYALGTVDVTPFIKKCKISWIPFMQEKYTKPNGDKELSEAEKIMLSFHEEQEVLPETFLANFPSLIKMDIHKKVTDPSVAKSMMACLLSSLKANGSRGAFCEVRPDDKRILEFYSKLGCFEIAKMEGFPKDVVILGRSL
modifications: myc tag
- O-GlcNAcylation level on endogenous CREB (endogenous CREB): reduced O-GlcNAc on CREB and the whole proteome
- change of enriched O-GlcNAcylated protein abundance (global proteome) (O-GlcNAcylated proteome): globally decreased O-GlcNAcylated proteins
- global O-GlcNAcylation level (global O-GlcNAcylation): global reduction of O-GlcNAc; also recorded: reduced O-GlcNAc on CREB and the whole proteome
